Source: patent publication US11779560B2 (priority 2020, dated 2023)

What was measured:
Settings in all cases: 10-100 μM concentrations
[1] = system: mitochondrial electron transport chain and ATP synthase (Complex I-V); assay: MitoCheck Complex I-V activity assays in isolated mitochondria; type: biochemical, bovine
Description: MitoCheck Complex I-V activity assays were conducted in an Agilent Seahorse XFe96 analyzer to determine the effects of compounds on the mitochondrial electron transport chain and ATP synthase in isolated mitochondria. Compounds were screened in a dose dependent manner using 10-point ½ log dilutions in quadruplicate along with a […] for each of the five complexes.
Complex I activity was determined using an assay that measures the rotenone-sensitive rate of NADH oxidation by complex I in isolated bovine heart mitochondria. To prevent oxidation of ubiquinol by complex III, KCN (1 mM) was present to inhibit the downstream electron transport chain. […]
Complex II activity was determined using an assay that measures the succinate dependent rate of DCPIP reduction in isolated bovine heart mitochondria. […]
Complex III activity was determined using an assay measures the rate of cytochrome c reduction by the passage of electrons from complex II to complex III via ubiquinone in isolated bovine heart mitochondria. […]
Complex IV activity was determined using an assay that measures the rate of cytochromec oxidation by complex IV in isolated bovine heart mitochondria. […]
Complex V activity was determined using an assay that measures the rate of […] resulting from a series of coupled reactions linked to the hydrolysis of ATP by complex V in isolated bovine heart mitochondria. […]

[2] = system: HMEC-1 human dermal endothelial cells; assay: Cell TiterGlo ATP Luminescent Cell Viability assay (total cellular ATP); type: cell-based
Description: The Cell TiterGlo ATP Luminescent Cell Viability assay (Promega Cat. #G7571) was run to measure total cellular ATP in response to compound treatment. Assays were performed using HMEC-1 human dermal endothelial cells. Compounds were screened using 8-point ½ log dilutions in duplicate in the presence of vehicle.

[3] = system: HMEC-1 human dermal endothelial cells; assay: Mitochondrial stress test (Agilent Seahorse XFe96); type: cell-based
Description: A mitochondrial stress test was also conducted to determine the effects of the experimental compounds on cellular mitochondria. Assays were conducted using HMEC-1 human dermal endothelial cells optimized for use with the Agilent Seahorse XFe96 analyzer. HMEC-1 cells were obtained from ATCC and cultured in accordance with the supplier's guidelines: complete cell culture media consisted of MCD 131 supplemented with 10 ng/ml EGF 1 μg/ml hydrocortisone, 10 mM glutamine, 10% FBS, and 1% penicillin/streptomycin. To determine optimal cell seeding densities, cells were seeded in Agilent XF96 cell culture microplates at 80,000 cells/well at the highest concentration. […] Cell viability was assessed using trypan blue exclusion. […] (non-CO2) for 1 hour and imaged with a Cytation 5 imaging multimode plate reader (BioTek instruments) and analyzed using Prism 9.0 (GraphPad Software.) The stress test profile cycled through 18 minute exposures to oligomycin 1 μg/ml, FCCP 2 μM and antimycin A 10 μM/rotenone 1 μM. At the completion of the mitochondrial stress test, cells were imaged and Hoechst positive nuclei were quantified using the Seahorse Cell Analysis software. All data were analyzed using Wave Analysis software (version 2.6.1.53) and Prism 9.0 (GraphPad software). […]

O=C(CO)NCCCN[C@@H]1CO[C@H]2[C@@H]1OC[C@@H]2O[N+](=O)[O-] [CR-0305, (3S,3aS,6R,6aR)-6-((3-(2-hydroxyacetamido)propyl)amino)hexahydrofuro[3,2-b]furan-3-yl nitrate]
No significant toxicity: Toxicity, MitoCheck Complex I-V activity [1] | Toxicity, effect of drug on ATP synthesis [2] | Toxicity, mitochondrial stress test [3]
